This passage reports Dmax and DC50 results from patent US12539292B2, “BRM targeting compounds and associated methods of use” (Arvinas Operations, Inc., priority 2018, dated 2026).

The experiment concerns the target T1, BRM (Homo sapiens, UniProt P51531).
T1 construct: In-Cell Western Screen of BRM Degradation in SW1573 Cells; endogenous in cells; host or cells: SW1573
Briefly: In-cell Western screen of BRM degradation in SW1573 cells (Dmax and DC50). The format is cell-based. The method, boiled down: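 Overnight compound treatment (18-20 h, final DMSO 0.1%) of SW1573 cells in DMEM with 10% FBS precedes fixation and in-cell Western staining with 800/680 nm dye-labelled secondaries. Plate images give DC50 and maximal degradation.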

Setting [1] is: SW1573, % degraded, when tested at the top concentration of between 0.3 and 10 μM, read-out: BRM Dmax (%).
Setting [2] is: target protein degradation, read-out: BRM DC50.
The mark [3] stands for this setting: BRM degradation, SW1573 cells, Table 2D, read-out: **Dmax (%) (% degraded).
[4] abbreviates: BRM degradation, SW1573 cells, Table 2D, read-out: *DC50.
[5] abbreviates: BRM degradation, SW1573 cells, read-out: DC50.
Where [6] appears, read: BRM degradation, SW1573 cells, read-out: Dmax (% degraded).
[7] abbreviates: degradation of BRM, read-out: BRM DC50.
[8] abbreviates: BRM degradation, SW1573 cells, when tested at the top concentration of between 0.3 and 10 μM, read-out: Dmax (%) (% degraded).
Where [9] appears, read: BRM degradation, read-out: BRM DC50.

Like-named read-outs stand apart in the source and are kept apart here. Some results are limits rather than exact numbers.

T1 sequence (P51531 whole entry): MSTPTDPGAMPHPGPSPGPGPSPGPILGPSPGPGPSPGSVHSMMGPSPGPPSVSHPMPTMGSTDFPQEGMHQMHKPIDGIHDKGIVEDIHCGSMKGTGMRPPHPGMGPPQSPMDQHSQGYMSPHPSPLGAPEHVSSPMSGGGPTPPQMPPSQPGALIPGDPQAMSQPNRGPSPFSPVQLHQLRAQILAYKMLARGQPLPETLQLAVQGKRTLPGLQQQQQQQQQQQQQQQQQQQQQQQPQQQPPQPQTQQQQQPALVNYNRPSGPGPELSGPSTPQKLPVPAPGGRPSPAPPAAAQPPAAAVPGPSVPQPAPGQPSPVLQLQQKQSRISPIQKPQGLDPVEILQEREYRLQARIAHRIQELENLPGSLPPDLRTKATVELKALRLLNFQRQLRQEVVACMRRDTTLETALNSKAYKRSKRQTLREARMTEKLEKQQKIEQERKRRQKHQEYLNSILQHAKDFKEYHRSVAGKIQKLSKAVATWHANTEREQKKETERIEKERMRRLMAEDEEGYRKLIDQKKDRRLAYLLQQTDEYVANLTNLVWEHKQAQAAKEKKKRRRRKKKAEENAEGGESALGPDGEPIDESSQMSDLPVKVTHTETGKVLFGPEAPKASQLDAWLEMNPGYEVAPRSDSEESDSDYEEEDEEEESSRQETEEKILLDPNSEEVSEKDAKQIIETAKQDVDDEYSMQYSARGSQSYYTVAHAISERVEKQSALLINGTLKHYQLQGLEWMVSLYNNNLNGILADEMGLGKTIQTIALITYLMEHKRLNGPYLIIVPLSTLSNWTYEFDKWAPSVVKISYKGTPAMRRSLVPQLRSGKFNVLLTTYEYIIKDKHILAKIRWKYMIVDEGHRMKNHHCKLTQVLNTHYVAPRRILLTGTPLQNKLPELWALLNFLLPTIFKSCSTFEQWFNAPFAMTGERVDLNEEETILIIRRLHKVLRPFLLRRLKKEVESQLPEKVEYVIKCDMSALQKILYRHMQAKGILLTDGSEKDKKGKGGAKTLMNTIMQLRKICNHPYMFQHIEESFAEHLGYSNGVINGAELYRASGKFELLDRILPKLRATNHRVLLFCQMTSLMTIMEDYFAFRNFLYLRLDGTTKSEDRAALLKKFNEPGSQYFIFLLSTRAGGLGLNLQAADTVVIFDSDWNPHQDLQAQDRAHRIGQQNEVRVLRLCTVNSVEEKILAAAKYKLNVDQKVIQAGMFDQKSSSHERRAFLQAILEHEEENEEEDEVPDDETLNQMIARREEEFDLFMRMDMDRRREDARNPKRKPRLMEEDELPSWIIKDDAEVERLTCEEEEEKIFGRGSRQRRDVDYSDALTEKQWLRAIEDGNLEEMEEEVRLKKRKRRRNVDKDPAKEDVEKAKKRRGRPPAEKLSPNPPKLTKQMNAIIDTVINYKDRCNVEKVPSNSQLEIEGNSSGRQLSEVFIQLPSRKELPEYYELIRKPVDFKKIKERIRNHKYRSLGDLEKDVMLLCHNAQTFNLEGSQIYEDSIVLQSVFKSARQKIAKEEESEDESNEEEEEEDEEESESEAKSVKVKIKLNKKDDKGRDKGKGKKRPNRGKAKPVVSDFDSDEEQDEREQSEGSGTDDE

With `Cc1ncsc1-c1ccc([C@H](C)NC(=O)[C@@H]2C[C@@H](O)CN2C(=O)[C@@H](c2cc(N3CCC(OC4CCN(C[C@H]5C[C@H](Oc6cc(N7C8CCC7CN(c7cc(-c9ccccc9O)nnc7N)C8)ccn6)C5)CC4)CC3)no2)C(C)C)cn1` [compound 476, (2S,4R)-1-((2R)-2-(3-(4-((1-(((1r,3r)-3-((4-(3-(3-amino-6-(2-hydroxyphenyl)pyridazin-4-yl)-3,8-diazabicyclo[3.2.1]octan-8-yl)pyridin-2-yl)oxy)cyclobutyl)methyl)piperidin-4-yl)oxy)piperidin-1-yl)isoxazol-5-yl)-3-methylbutanoyl)-4-hydroxy-N-((S)-1-(6-(4-methylthiazol-5-yl)pyridin-3-yl)ethyl)pyrrolidine-2-carboxamide], the Dmax under setting [1] is above 75%. The DC50 under setting [2] is below 0.0025 µM.
For `Cc1ncsc1-c1ccc([C@H](C)NC(=O)[C@@H]2C[C@@H](O)CN2C(=O)[C@H](c2cc(OCC[C@@H]3CCN(C[C@H]4C[C@H](Oc5cc(N6C7CCC6CN(c6cc(-c8ccccc8O)nnc6N)C7)ccn5)C4)C[C@H]3C)no2)C(C)C)cc1` (racemic) [compound 545, (2S,4R)-1-((2S)-2-(3-(2-((3S,4S)-1-(((1r,3S)-3-((4-(3-(3-amino-6-(2-hydroxyphenyl)pyridazin-4-yl)-3,8-diazabicyclo[3.2.1]octan-8-yl)pyridin-2-yl)oxy)cyclobutyl)methyl)-3-methylpiperidin-4-yl)ethoxy)isoxazol-5-yl)-3-methylbutanoyl)-4-hydroxy-N-((S)-1-(4-(4-methylthiazol-5-yl)phenyl)ethyl)pyrrolidine-2-carboxamide], under setting [3], the Dmax was above 75%. Besides, the DC50 under setting [4] was in the range of 0.0025 to 0.01 µM.
Consider `Cc1cc([C@H](C(=O)N2C[C@H](O)C[C@H]2C(=O)N[C@@H](C)c2ccc(-c3scnc3C)cc2)[C@@H](C)CO[C@H]2C[C@@H](Oc3cc(N4C5CCC4CN(c4cc(-c6ccccc6O)nnc4N)C5)ccn3)C2)on1` [compound 482, (2S,4R)-1-((2R,3R)-4-((1s,3S)-3-((4-(3-(3-amino-6-(2-hydroxyphenyl)pyridazin-4-yl)-3,8-diazabicyclo[3.2.1]octan-8-yl)pyridin-2-yl)oxy)cyclobutoxy)-3-methyl-2-(3-methylisoxazol-5-yl)butanoyl)-4-hydroxy-N-((S)-1-(4-(4-methylthiazol-5-yl)phenyl)ethyl)pyrrolidine-2-carboxamide], for which the half-maximal degradation concentration (DC50) under setting [2] is above 0.03 µM.
Turning to `Cc1ncsc1-c1ccc([C@H](C)NC(=O)[C@@H]2C[C@@H](O)CN2C(=O)[C@@H](c2cc(N3CCC(N4CCC(O[C@H]5C[C@H](Oc6cc(N7C8CCC7CN(c7cc(-c9ccccc9O)nnc7N)C8)ccn6)C5)CC4)CC3)no2)C(C)C)cc1` [compound 685, (2S,4R)-1-((2R)-2-(3-(4-((1r,3R)-3-((4-(3-(3-amino-6-(2-hydroxyphenyl)pyridazin-4-yl)-3,8-diazabicyclo[3.2.1]octan-8-yl)pyridin-2-yl)oxy)cyclobutoxy)-[1,4'-bipiperidin]-1'-yl)isoxazol-5-yl)-3-methylbutanoyl)-4-hydroxy-N-((S)-1-(4-(4-methylthiazol-5-yl)phenyl)ethyl)pyrrolidine-2-carboxamide], under setting [5], the DC50 is below 0.0025 µM. The Dmax under setting [6] was above 75%.
For `Cc1nccn1-c1ccc([C@H](C)NC(=O)[C@@H]2C[C@@H](O)CN2C(=O)[C@@H](c2cc(N3CCC(CN4CCC(O[C@H]5C[C@H](C#C[C@@H](C)n6cc(-c7cc(-c8ccccc8O)nnc7N)cn6)C5)CC4)CC3)no2)C(C)C)cc1` (single isomer, unassigned) [compound 638], under setting [5], the DC50 was below 0.0025 µM. For the same molecule, the Dmax under setting [6] is above 75%.
On to `CC(C)[C@@H](C(=O)N1C[C@H](O)C[C@H]1C(=O)NCc1ccc(C2(F)CC2)cc1)c1cc(OCCN2CCC(O[C@H]3C[C@H](Oc4cc(N5C6CCC5CN(c5cc(-c7ccccc7O)nnc5N)C6)ccn4)C3)CC2)no1` [compound 419, (2S,4R)-1-((2R)-2-(3-(2-(4-((1r,3R)-3-((4-(3-(3-amino-6-(2-hydroxyphenyl)pyridazin-4-yl)-3,8-diazabicyclo[3.2.1]octan-8-yl)pyridin-2-yl)oxy)cyclobutoxy)piperidin-1-yl)ethoxy)isoxazol-5-yl)-3-methylbutanoyl)-N-(4-(1-fluorocyclopropyl)benzyl)-4-hydroxypyrrolidine-2-carboxamide], for which the Dmax under setting [1] was above 75%. Further, the DC50 under setting [7] fell in the range of 0.0025 to 0.01 µM.
For `Cc1ncsc1-c1ccc([C@H](C)NC(=O)[C@@H]2C[C@@H](O)CN2C(=O)[C@@H](c2cc(OCCN[C@H]3CC[C@H](O[C@H]4C[C@H](Oc5cc(N6C7CCC6CN(c6cc(-c8ccccc8O)nnc6N)C7)ccn5)C4)CC3)no2)C(C)C)cn1` [compound 396, (2S,4R)-1-((2R)-2-(3-(2-(((1R,4R)-4-((1r,3R)-3-((4-(3-(3-amino-6-(2-hydroxyphenyl)pyridazin-4-yl)-3,8-diazabicyclo[3.2.1]octan-8-yl)pyridin-2-yl)oxy)cyclobutoxy)cyclohexyl)amino)ethoxy)isoxazol-5-yl)-3-methylbutanoyl)-4-hydroxy-N-((S)-1-(6-(4-methylthiazol-5-yl)pyridin-3-yl)ethyl)pyrrolidine-2-carboxamide], the Dmax under setting [1] was above 75%. The DC50 under setting [2] lay within 0.0025 to 0.01 µM.
`Cc1ncsc1-c1ccc(CNC(=O)[C@@H]2C[C@@H](O)CN2C(=O)[C@@H](NC(=O)COCCOCCOCCOC/C=C/c2cc(N3C4CCC3CN(c3cc(-c5ccccc5O)nnc3N)C4)ccn2)C(C)(C)C)cc1` [compound 52, (2S,4R)-1-((S,E)-18-(4-(3-(3-amino-6-(2-hydroxyphenyl)pyridazin-4-yl)-3,8-diaza-bicyclo[3.2.1]octan-8-yl)pyridin-2-yl)-2-tert-butyl-4-oxo-6,9,12,15-tetraoxa-3-azaoctadec-17-en-1-oyl)-4-hydroxy-N-(4-(4-methylthiazol-5-yl)benzyl)pyrrolidine-2-carboxamide]: the DC50 under setting [5] was in the range of 0.01 to 0.03 µM. Under setting [8], the Dmax is above 75%.
Turning to `Cc1ncsc1-c1ccc(CNC(=O)[C@@H]2C[C@@H](O)CN2C(=O)[C@@H](c2cc(OCCOCCOCCn3cc(-c4cc(-c5ccccc5O)nnc4N)cn3)no2)C(C)C)cc1` [compound 15, (2S,4R)-1-[(2R)-2-(3-[2-[2-(2-[4-[3-amino-6-(2-hydroxyphenyl)pyridazin-4-yl]-1H-pyrazol-1-yl]ethoxy)ethoxy]ethoxy]-1,2-oxazol-5-yl)-3-methylbutanoyl]-4-hydroxy-N-[[4-(4-methyl-1,3-thiazol-5-yl)phenyl]methyl]pyrrolidine-2-carboxamide], under setting [5], the DC50 lay within 0.01 to 0.03 µM. In addition, under setting [8], the Dmax was above 75%.
`Cc1ncsc1-c1ccc([C@H](C)NC(=O)[C@@H]2C[C@@H](O)CN2C(=O)[C@@H](c2cc(OCCN3CCC(O[C@H]4C[C@H](Oc5cc(N6C7CCC6CN(c6cc(N)nc8nc(-c9ccccc9O)cn68)C7)ccn5)C4)CC3)no2)C(C)C)cc1` [compound 516]: the DC50 under setting [9] is above 0.03 µM.
Regarding `CNC(=O)CCC[C@H](NC(=O)[C@@H]1C[C@@H](O)CN1C(=O)[C@@H](c1cc(OCCN2CCC(O[C@H]3C[C@H](Oc4cc(N5C6CCC5CN(c5cc(-c7ccccc7O)nnc5N)C6)ccn4)C3)CC2)no1)C(C)C)c1ccc(-c2scnc2C)cc1` [compound 570, (2S,4R)-1-((2R)-2-(3-(2-(4-((1r,3R)-3-((4-(3-(3-amino-6-(2-hydroxyphenyl)pyridazin-4-yl)-3,8-diazabicyclo[3.2.1]octan-8-yl)pyridin-2-yl)oxy)cyclobutoxy)piperidin-1-yl)ethoxy)isoxazol-5-yl)-3-methylbutanoyl)-4-hydroxy-N-((S)-5-(methylamino)-1-(4-(4-methylthiazol-5-yl)phenyl)-5-oxopentyl)pyrrolidine-2-carboxamide], the Dmax under setting [3] was above 75%. The 50% degradation concentration (DC50) under setting [4] was below 0.0025 µM.
In the case of `CC(C)[C@@H](C(=O)N1C[C@H](O)C[C@H]1C(=O)N[C@@H](C)c1ccc(C2CC2(F)F)cc1)c1cc(OCCN2CCC(O[C@H]3C[C@H](Oc4cc(N5C6CCC5CN(c5cc(-c7ccccc7O)nnc5N)C6)ccn4)C3)CC2)no1` (stereo partly drawn) [compound 439, (2S,4R)-1-((2R)-2-(3-(2-(4-((1r,3R)-3-((4-(3-(3-amino-6-(2-hydroxyphenyl)pyridazin-4-yl)-3,8-diazabicyclo[3.2.1]octan-8-yl)pyridin-2-yl)oxy)cyclobutoxy)piperidin-1-yl)ethoxy)isoxazol-5-yl)-3-methylbutanoyl)-N-((1S)-1-(4-(2,2-difluorocyclopropyl)phenyl)ethyl)-4-hydroxypyrrolidine-2-carboxamide], under setting [7], the DC50 is above 0.03 µM.
For the molecule `Cc1ncsc1-c1ccc([C@H](C)NC(=O)[C@@H]2C[C@@H](O)CN2C(=O)[C@@H](c2cc(N3CCN(CC#Cc4ncc(O[C@H]5C[C@H](Oc6cc(N7C8CCC7CN(c7cc(-c9ccccc9O)nnc7N)C8)ccn6)C5)cn4)CC3)no2)C(C)C)cc1` [compound 522, (2S,4R)-1-((2R)-2-(3-(4-(3-(5-((1r,3r)-3-((4-(3-(3-amino-6-(2-hydroxyphenyl)pyridazin-4-yl)-3,8-diazabicyclo[3.2.1]octan-8-yl)pyridin-2-yl)oxy)cyclobutoxy)pyrimidin-2-yl)prop-2-yn-1-yl)piperazin-1-yl)isoxazol-5-yl)-3-methylbutanoyl)-4-hydroxy-N-((S)-1-(4-(4-methylthiazol-5-yl)phenyl)ethyl)pyrrolidine-2-carboxamide], the DC50 under setting [9] is below 0.0025 µM. Further, the maximal degradation (Dmax) under setting [1] is above 75%.

As usually defined, the Dmax is the largest share of the target that was removed. Usually DC50 stands for the concentration giving 50% degradation.
